Laboratory results from patent US12441691B2 (Cytokinetics, Inc., priority 2020, dated 2025).

Each molecule was assayed on rabbit skeletal myofibrils (fast skeletal myofibrils) (assay: Activation of fast skeletal myofibrils (PUMA assay, AC1.4)). Conditions: calcium at pCa25, AC1.4 = concentration at which the compound increased the enzymatic activity.
Format: biochemical
Outline: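 In 12 mM PIPES pH 6.8 with 2 mM MgCl2 and 1 mM DTT, Triton-washed rabbit skeletal myofibrils were run at the pCa25 calcium level. Myosin-made ADP was recycled through a PK/LDH coupled system; NADH loss read at 340 nm.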
In the case of CC[C@H](C)[C@H]1C(=O)Nc2ccccc2CN1C(=O)CC(C)O (stereo partly drawn) [Compound 199, (3S)-3-((S)-sec-butyl)-4-(3-hydroxybutanoyl)-1,3,4,5-tetrahydro-2H-benzo[e][1,4]diazepin-2-one], the AC1.4 is reported as 0.94 µM.
For C[C@@H](OCc1ccccc1)[C@H]1C(=O)Nc2ccccc2CN1C(=O)c1cnn(C)c1 [Compound 200, (S)-3-((R)-1-(benzyloxy)ethyl)-4-(1-methyl-1H-pyrazole-4-carbonyl)-1,3,4,5-tetrahydro-2H-benzo[e][1,4]diazepin-2-one], the AC1.4 was 4.22 µM.
CC[C@H](C)[C@H]1C(=O)Nc2ccccc2CN1C(=O)COc1ccccc1C(N)=O [Compound 201, 2-(2-((S)-3-((S)-sec-butyl)-2-oxo-1,2,3,5-tetrahydro-4H-benzo[e][1,4]diazepin-4-yl)-2-oxoethoxy)benzamide] gave an AC1.4 of 0.05 µM.
Molecule CC[C@H](C)[C@H]1C(=O)Nc2ccccc2CN1C(=O)Nc1ccc(NC(C)=O)nc1 [Compound 202, (S)-N-(6-acetamidopyridin-3-yl)-3-((S)-sec-butyl)-2-oxo-1,2,3,5-tetrahydro-4H-benzo[e][1,4]diazepine-4-carboxamide] has an AC1.4 of 0.17 µM.
In the case of CC[C@H](C)[C@H]1C(=O)Nc2ccccc2CN1C(=O)NCCO [Compound 203, (S)-3-((S)-sec-butyl)-N-(2-hydroxyethyl)-2-oxo-1,2,3,5-tetrahydro-4H-benzo[e][1,4]diazepine-4-carboxamide], the AC1.4 is reported as 1.75 µM.
With CC[C@H](C)[C@H]1C(=O)Nc2ccccc2CN1C(=O)NCC(N)=O [Compound 204, (S)-N-(2-amino-2-oxoethyl)-3-((S)-sec-butyl)-2-oxo-1,2,3,5-tetrahydro-4H-benzo[e][1,4]diazepine-4-carboxamide] the AC1.4 was 3.66 µM.
CC[C@H](C)[C@H]1C(=O)Nc2ccccc2CN1C(=O)NCCC(N)=O [Compound 205, (S)-N-(3-amino-3-oxopropyl)-3-((S)-sec-butyl)-2-oxo-1,2,3,5-tetrahydro-4H-benzo[e][1,4]diazepine-4-carboxamide] gave an AC1.4 of 1.58 µM.
For CC[C@H](C)[C@H]1C(=O)Nc2ccccc2CN1C(=O)NCC(=O)NC [Compound 206, (S)-3-((S)-sec-butyl)-N-(2-(methylamino)-2-oxoethyl)-2-oxo-1,2,3,5-tetrahydro-4H-benzo[e][1,4]diazepine-4-carboxamide], the AC1.4 was 4.98 µM.
With CC[C@H](C)[C@H]1C(=O)Nc2ccccc2CN1C(=O)NC[C@H](O)CO [Compound 207, (S)-3-((S)-sec-butyl)-N-((S)-2,3-dihydroxypropyl)-2-oxo-1,2,3,5-tetrahydro-4H-benzo[e][1,4]diazepine-4-carboxamide] the AC1.4 was 3.62 µM.
With CC[C@H](C)[C@H]1C(=O)Nc2ccccc2CN1C(=O)NC[C@@H](O)CO [Compound 208, (S)-3-((S)-sec-butyl)-N-((R)-2,3-dihydroxypropyl)-2-oxo-1,2,3,5-tetrahydro-4H-benzo[e][1,4]diazepine-4-carboxamide] the AC1.4 was 2.70 µM.
With CC[C@H](C)[C@H]1C(=O)Nc2ccccc2CN1C(=O)N[C@@H]1CCNC1=O [Compound 209, (S)-3-((S)-sec-butyl)-2-oxo-N-((R)-2-oxopyrrolidin-3-yl)-1,2,3,5-tetrahydro-4H-benzo[e][1,4]diazepine-4-carboxamide] the AC1.4 was 4.17 µM.
Molecule CC[C@H](C)[C@H]1C(=O)Nc2ccccc2CN1C(=O)N[C@H]1CCNC1=O [Compound 210, (S)-3-((S)-sec-butyl)-2-oxo-N-((S)-2-oxopyrrolidin-3-yl)-1,2,3,5-tetrahydro-4H-benzo[e][1,4]diazepine-4-carboxamide] has an AC1.4 of 4.25 µM.
CC[C@H](C)[C@H]1C(=O)Nc2ccccc2CN1C(=O)NCCNC(C)=O [Compound 211, (S)-N-(2-acetamidoethyl)-3-((S)-sec-butyl)-2-oxo-1,2,3,5-tetrahydro-4H-benzo[e][1,4]diazepine-4-carboxamide] gave an AC1.4 of 2.92 µM.
CC[C@H](C)[C@H]1C(=O)Nc2ccccc2CN1C(=O)NCCNC(N)=O [Compound 212, (S)-3-((S)-sec-butyl)-2-oxo-N-(2-ureidoethyl)-1,2,3,5-tetrahydro-4H-benzo[e][1,4]diazepine-4-carboxamide] gave an AC1.4 of 1.27 µM.
In the case of CC[C@H](C)[C@H]1C(=O)Nc2ccccc2CN1C(=O)NCC[S+](C)[O-] (stereo partly drawn) [Compound 213, (3S)-3-((S)-sec-butyl)-N-(2-(methylsulfinyl)ethyl)-2-oxo-1,2,3,5-tetrahydro-4H-benzo[e][1,4]diazepine-4-carboxamide], the AC1.4 is reported as 4.04 µM.
CC[C@H](C)[C@H]1C(=O)Nc2ccccc2CN1C(=O)NCc1cncn1C [Compound 214, (S)-3-((S)-sec-butyl)-N-((1-methyl-1H-imidazol-5-yl)methyl)-2-oxo-1,2,3,5-tetrahydro-4H-benzo[e][1,4]diazepine-4-carboxamide] showed an AC1.4 of 1.72 µM.
For CC[C@H](C)[C@H]1C(=O)Nc2ccccc2CN1C(=O)NC[C@H]1CCC(=O)N1 [Compound 215, (S)-3-((S)-sec-butyl)-2-oxo-N-(((R)-5-oxopyrrolidin-2-yl)methyl)-1,2,3,5-tetrahydro-4H-benzo[e][1,4]diazepine-4-carboxamide], the AC1.4 was 4.65 µM.
CC[C@H](C)[C@H]1C(=O)Nc2ccccc2CN1C(=O)N[C@H]1CCCNC1=O [Compound 216, (S)-3-((S)-sec-butyl)-2-oxo-N-((S)-2-oxopiperidin-3-yl)-1,2,3,5-tetrahydro-4H-benzo[e][1,4]diazepine-4-carboxamide] was tested, and the AC1.4 was 2.64 µM.
In the case of CC[C@H](C)[C@H]1C(=O)Nc2ccccc2CN1C(=O)N[C@@H]1CCCNC1=O [Compound 217, (S)-3-((S)-sec-butyl)-2-oxo-N-((R)-2-oxopiperidin-3-yl)-1,2,3,5-tetrahydro-4H-benzo[e][1,4]diazepine-4-carboxamide], the AC1.4 is reported as 2.45 µM.
Work on CC[C@H](C)[C@H]1C(=O)Nc2ccccc2CN1C(=O)N[C@@H]1CCC(=O)NC1 [Compound 218, (S)-3-((S)-sec-butyl)-2-oxo-N-((R)-6-oxopiperidin-3-yl)-1,2,3,5-tetrahydro-4H-benzo[e][1,4]diazepine-4-carboxamide] yielded an AC1.4 of 0.88 µM.
Molecule CC[C@H](C)[C@H]1C(=O)Nc2ccccc2CN1C(=O)N[C@H]1CCC(=O)NC1 [Compound 219, (S)-3-((S)-sec-butyl)-2-oxo-N-((S)-6-oxopiperidin-3-yl)-1,2,3,5-tetrahydro-4H-benzo[e][1,4]diazepine-4-carboxamide] has an AC1.4 of 2.10 µM.
With CC[C@H](C)[C@H]1C(=O)Nc2ccccc2CN1C(=O)NCCS(C)(=O)=O [Compound 220, (S)-3-((S)-sec-butyl)-N-(2-(methylsulfonyl)ethyl)-2-oxo-1,2,3,5-tetrahydro-4H-benzo[e][1,4]diazepine-4-carboxamide] the AC1.4 was 3.01 µM.
CC[C@H](C)[C@H]1C(=O)Nc2ccccc2CN1C(=O)NCCS(N)(=O)=O [Compound 221, (S)-3-((S)-sec-butyl)-2-oxo-N-(2-sulfamoylethyl)-1,2,3,5-tetrahydro-4H-benzo[e][1,4]diazepine-4-carboxamide] showed an AC1.4 of 1.80 µM.
With CC[C@H](C)[C@H]1C(=O)Nc2ccccc2CN1C(=O)NCCN1CC[C@@H](O)C1 [Compound 222, (S)-3-((S)-sec-butyl)-N-(2-((R)-3-hydroxypyrrolidin-1-yl)ethyl)-2-oxo-1,2,3,5-tetrahydro-4H-benzo[e][1,4]diazepine-4-carboxamide] the AC1.4 was 2.02 µM.
